EP1501797B1, “3-(SUBSTITUTED AMINO)-1H-INDOLE-2-CARBOXYLIC ACID ESTER AND 3-(SUBSTITUTED AMINO)-BENZO[B]THIOPHENE-2-CARBOXYLIC ACID ESTER DERIVATIVES AS INTERLEUKIN-4 GENE EXPRESSION INHIBITORS” (Aventis Pharmaceuticals Inc., priority 2002, dated 2003)

Assays:
[1] = system: Swiss 3T3 fibroblasts; test: in vitro
Description: (§1) A third assay utilized in the present invention involves an in vitro cytotoxicity assay. This assay is used to further characterize the compounds in order to assess toxic activities of compounds on contact inhibited, non-dividing 3T3 fibroblasts. Other toxicity assays may be used.
(§2) Contact inhibited Swiss 3T3 fibroblasts are purchased from ATCC. The cells are maintained in 1640 RPMI supplemented with 10% fetal bovine serum (Gibco).
(§3) On day of assay, cells are detached from flasks by trypsinization, washed in medium and counted. 100 microliters of 2.5 x 10^4 cells per well are plated into Falcon brand 96 well tissue culture plates and cells incubated at 37°C in presence of 5% CO2 for 2 days or until confluent.
(§4) […] All compound dilutions are assayed in triplicate. […] Cells are returned to the incubator for 2 days.
(§5) After 2 day incubation, the 3T3 cells are assayed for viability using an MTS Assay Kit (Promega). Media is added to blank wells for background calculations. After 2 hours incubation in kit reagent, the optical density at 490 nm for each compound and control is determined by plate reader.
(§6) Results are expressed as percent cytotoxicity, i.e., (mean OD of compound wells - background OD)/ (mean OD of controls - background).
(§7) Note that starting concentration of CsA was 1 µM. […]

[2] = in vitro; details: mouse, swiss 3t3 fibroblasts
Description: as §1, §2, §3, §4, §5, §6, §7

[3] = system: Human Th2 cells; test: Human primary Th2 cells, proliferation (viability, MTS assay); type: cell-based; details: Human primary Th2 cells; combined data from 10 different experiments; read-out: Prol. IC50
Description: (§8) Briefly, CD4^+CD45RA^+ T cells, isolated from donor peripheral blood mononuclear cells of healthy donors, are educated in the presence of anti-CD3/CD28 antibodies and various growth factors to obtain either a Thl-like or Th2-like phenotypes as determined by the known cytokine profiles of these two cell types.
(§9) Peripheral blood mononuclear cells (PBMC) are prepared from human blood by Ficoll-Hypacque (Pharmacia). The cells are washed two times in Hanks balanced salt solution (HBSS) and counted.
(§10) Naive T cells (CD4^+/CD45RA ) are prepared by negative selection method using following antibodies and Dynabeads: anti-CD8, anti-HLA-DR, (where HLA means human leucocyte antigen) anti-CD14, anti-CD16, anti-CD19, anti-CD45RO antibodies (all from R&D Systems, 1-2 µg/ml) are added to the cells, and the cells are kept on ice for 30 min. The cells are washed two times in HBSS, and goat anti- mouse Ig-beads, (bead:target ratio, 5:1) are added. The cells and beads are slowly rotated at 4°C for 20 min. (following the protocol supplied from Dynal). The supernatant is removed and fresh goat anti-mouse Ig-beads are added to the supernatant, which is slowly rotated at 4°C for 20 min. The cells are counted and phenotypically characterized by flow cytometric analysis.
(§11) CD4^+/CD45RA^+ cells at a density of 10^6/ml in RPMI, is prepared and added to RPMI medium containing 10% Hyclone serum/ glutamine and 1-2 µg/ml anti-CD28 Ab. The cells are split in two aliquots. For Th1 cells: anti-IL-4 Ab (1-2 µg/ml), IFN-γ (1 µg/ml, or 5000 units/ml) are added to the wells. For Th2 cells: IL-4 (100-200 ng/ml), anti-IFN-γ neutralizing Ab (1-2 µg/ml), anti-IL-12 neutralizing Ab (1-2 µg/ml) are added into the wells. […] The cells are transferred to fresh wells and grown in 200 units/ml IL-2 for 2 weeks by feeding them every other day with IL-2 containing medium and splitting the cultures 1:2 or 1:3 as needed. The degree of polarization is determined by intracellular staining of cells with anti-IFN-γ and anti-IL-4 antibodies from Pharmingen, and using flow cytometry from Becton Dickinson (BD), according to manufacturers description. The cells are stimulated with PHA and alloantigens at day 14 and 28 as described below. Eight days after the second allostimulation the cells can be used for compound screening or frozen for future use. For compound testing, large quantities of Th1 and Th2 cells derived from a given donor (NYTh1 and NYTh2) were expanded and frozen as aliquots in liquid nitrogen. The cells are thawed and cultured as and when needed. The thawed cells are stimulated with alloantigen/PHA combination. The cells are used for compound screening after 8-10 days in culture.
(§12) Re-stimulation by allogeneic cells: Human PBMCs, to be used as alloantigens, are isolated from freshly drawn blood by Ficoll separation. […] Cells are counted and diluted to a final concentration of 2 x 10^6/ml in medium containing 10 µg/ml PHA and 200 units/ml IL-2.
(§13) Ninetysix well Falcon tissue culture plates (Fisher Scientific) are coated with 100 microliters per well of 10 µg/ml anti-CD3 (PharMingen) antibody in phosphate buffered saline (PBS) and stored at 4°C one day before the experiment.
(§14) On the day of assay, anti-CD3 antibody coated plates are washed with PBS once to remove all soluble anti-CD3 antibody. […] All compounds and controls are assayed in triplicates.

[4] = as above; type: cell-based; details: human, th2 cells, MTS, read-out: Proliferation (% control) mean
Description: as §8, §9, §10, §11, §12, §13, §14

[5] = system: IL-13; test: Human primary Th2 cells, anti-CD3/anti-CD28 activated, IL-13 ELISA; type: cell-based
Description: as §8, §9, §10, §11, §12, §13, §14

[6] = system: IL-5; test: Human primary Th2 cells, anti-CD3/anti-CD28 activated, IL-5 ELISA; type: cell-based
Description: as §8, §9, §10, §11, §12, §13, §14

[7] = Human primary Th2 cells, combined data from 10 different experiments

O=C(O)c1[nH]c2ccccc2c1Nc1ccncc1 [Example 28, 3-(4-Pyridinylamino)-1H-indole-2-carboxylic acid]
toxic effects on the viability of quiescent 3T3 cells (in words) [1]: no toxic effects | viability at 48 h, 0.001 µM [2]: 124% | viability at 48 h, 0.01 µM [2]: 112% | viability at 48 h, 0.03 µM [2]: 111% | viability at 48 h, 0.1 µM [2]: 111% | viability at 48 h, 3 µM [2]: 110% | viability at 48 h, 10 µM [2]: 99.1% | IC50 [3]: > 10 µM | viability at 0.01 µM ([4]; 0.01 µM): 89.5% | viability at 0.03 µM ([4]; 0.03 µM): 85% | viability at 0.1 µM ([4]; 0.1 µM): 86.7% | viability at 0.3 µM ([4]; 0.3 µM): 80.6% | viability at 1 µM ([4]; 1 µM): 77.2% | viability at 3 µM ([4]; 3 µM): 72% | viability at 10 µM ([4]; 10 µM): 71.5% | activity at 0.01 µM ([5]; Homo sapiens, 0.01 µM, 48 hr, read-out: IL-13 (% control) mean): 91% | activity at 0.03 µM ([5]; Homo sapiens, 0.03 µM, 48 hr, read-out: IL-13 (% control) mean): 86.4% | activity at 0.1 µM ([5]; Homo sapiens, 0.1 µM, 48 hr, read-out: IL-13 (% control) mean): 82.3% | activity at 0.3 µM ([5]; Homo sapiens, 0.3 µM, 48 hr, read-out: IL-13 (% control) mean): 80.6% | activity at 1 µM ([5]; Homo sapiens, 1 µM, 48 hr, read-out: IL-13 (% control) mean): 75.2% | activity at 3 µM ([5]; Homo sapiens, 3 µM, 48 hr, read-out: IL-13 (% control) mean): 73.4% | activity at 10 µM ([5]; Homo sapiens, 10 µM, 48 hr, read-out: IL-13 (% control) mean): 68.4% | IC50 [5, 7]: ~10 µM | activity at 0.01 µM ([6]; Homo sapiens, 0.01 µM, 48 hr, read-out: IL-5 (% control) mean): 102% | activity at 0.03 µM ([6]; Homo sapiens, 0.03 µM, 48 hr, read-out: IL-5 (% control) mean): 85.2% | activity at 0.1 µM ([6]; Homo sapiens, 0.1 µM, 48 hr, read-out: IL-5 (% control) mean): 78.6% | activity at 0.3 µM ([6]; Homo sapiens, 0.3 µM, 48 hr, read-out: IL-5 (% control) mean): 70.8% | activity at 1 µM ([6]; Homo sapiens, 1 µM, 48 hr, read-out: IL-5 (% control) mean): 70.7% | activity at 3 µM ([6]; Homo sapiens, 3 µM, 48 hr, read-out: IL-5 (% control) mean): 70.4% | activity at 10 µM ([6]; Homo sapiens, 10 µM, 48 hr, read-out: IL-5 (% control) mean): 53.9% | IC50 [6, 7]: ~10 µM
